Reference: EP4740948A1 (Dong Wha Pharm. Co., Ltd., priority 2023, dated 2025)

Tests used:
MKN-45 cells = experiment: Cancer cell proliferation inhibition (Cell Counting Kit-8), gastric cancer cell line; assay type: cell-based; conditions: Homo sapiens, MKN-45, 264 h, 1000 nM, cultured seven to 11 days; read-out: % inhibition rate MKN -45
In short: (§1)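 Cells grown in RPMI1640, McCoy's 5a, L-15 or DMEM with 10% FBS, seeded at 100 to 1,000 cells/well and treated with test substance at 1000 nM for 7 to 11 days. Viability read by CCK-8; % inhibition = {1−(test/control)} × 100.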

G401 cells = experiment: Cancer cell proliferation inhibition (Cell Counting Kit-8), rhabdoid tumor cell line; assay type: cell-based; conditions: 1000 nM, cultured seven to 11 days; for inhibition at 1 µM: Homo sapiens, G-401, 264 h, read-out: % inhibition rate G401; for % inhibition rate G401: 1 µM
In short: as §1

NCI-H1299 cells = experiment: Cancer cell proliferation inhibition (Cell Counting Kit-8), lung cancer cell line; assay type: cell-based; conditions: Homo sapiens, NCI-H1299, 264 h, 1000 nM, cultured seven to 11 days; read-out: % inhibition rate NCI-H129 9
In short: (§2)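 Single-concentration growth test: compound at 1000 nM was applied to cells seeded at 100 to 1,000 per well and cultured seven to 11 days. Proliferation was then quantified with Cell Counting Kit-8, and percent inhibition was taken relative to control wells.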

MIA-PaCa-2 cells = experiment: Cancer cell proliferation inhibition (Cell Counting Kit-8), pancreatic cancer cell line; assay type: cell-based; conditions: Homo sapiens, MIA PaCa-2, 264 h, 1000 nM, cultured seven to 11 days; read-out: % inhibition rate MIA-Paca2
In short: as §2

Lovo cells = experiment: Cancer cell proliferation inhibition (Cell Counting Kit-8), colorectal cancer cell line; assay type: cell-based; conditions: 1000 nM, cultured seven to 11 days; for inhibition at 1 µM: Homo sapiens, LoVo, 264 h, read-out: % inhibition rate LoVo; for % inhibition rate LoVo: 1 µM
In short: as §2

SW-13 cells = experiment: Cancer cell proliferation inhibition (Cell Counting Kit-8), adrenal cancer cell line; assay type: cell-based; conditions: Homo sapiens, SW13, 264 h, 1000 nM, cultured seven to 11 days; read-out: % inhibition rate SW-13
In short: as §2

EZH1 = EZH1 (Homo sapiens, UniProt Q92800); experiment: AlphaLISA enzyme activity inhibition, EZH1; assay type: biochemical; conditions: for inhibition at 0.005 µM: 5nM test substance; for inhibition at 0.01 µM: 10nM test substance
EZH1, sequence (Q92800 whole entry, species assumed): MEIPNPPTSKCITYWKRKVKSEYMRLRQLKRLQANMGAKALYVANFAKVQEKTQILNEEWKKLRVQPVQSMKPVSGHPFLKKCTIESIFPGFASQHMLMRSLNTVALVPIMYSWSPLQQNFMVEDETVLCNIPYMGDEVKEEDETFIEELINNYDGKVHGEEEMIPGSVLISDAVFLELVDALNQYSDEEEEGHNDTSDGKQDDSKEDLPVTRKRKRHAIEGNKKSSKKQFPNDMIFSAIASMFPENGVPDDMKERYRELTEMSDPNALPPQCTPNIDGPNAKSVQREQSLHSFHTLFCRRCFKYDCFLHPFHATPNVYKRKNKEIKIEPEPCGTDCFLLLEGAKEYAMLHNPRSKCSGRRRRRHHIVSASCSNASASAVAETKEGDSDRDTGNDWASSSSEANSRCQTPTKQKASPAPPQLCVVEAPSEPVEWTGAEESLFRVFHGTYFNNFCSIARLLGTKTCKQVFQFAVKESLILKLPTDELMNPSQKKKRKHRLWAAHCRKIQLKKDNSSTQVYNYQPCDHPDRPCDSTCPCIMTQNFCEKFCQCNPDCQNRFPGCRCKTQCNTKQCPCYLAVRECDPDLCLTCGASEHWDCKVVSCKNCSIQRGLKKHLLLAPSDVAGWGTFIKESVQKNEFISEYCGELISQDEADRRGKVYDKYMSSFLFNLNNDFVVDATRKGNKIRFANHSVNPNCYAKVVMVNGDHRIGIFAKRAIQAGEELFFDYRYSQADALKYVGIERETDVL
EZH1, sequence (O75530 whole entry partner, species assumed): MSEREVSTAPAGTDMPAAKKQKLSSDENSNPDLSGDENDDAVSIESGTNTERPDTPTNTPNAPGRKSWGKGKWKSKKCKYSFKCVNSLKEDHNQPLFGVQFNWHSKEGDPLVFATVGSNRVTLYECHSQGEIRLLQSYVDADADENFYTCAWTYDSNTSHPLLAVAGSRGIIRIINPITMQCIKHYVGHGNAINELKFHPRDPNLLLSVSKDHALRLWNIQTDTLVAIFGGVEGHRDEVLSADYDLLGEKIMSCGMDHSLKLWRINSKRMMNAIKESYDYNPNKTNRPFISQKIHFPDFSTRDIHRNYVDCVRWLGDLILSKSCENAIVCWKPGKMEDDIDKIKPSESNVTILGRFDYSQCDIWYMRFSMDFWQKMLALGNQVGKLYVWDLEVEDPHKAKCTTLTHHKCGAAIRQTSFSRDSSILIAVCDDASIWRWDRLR
EZH1, sequence (Q15022 whole entry partner, species assumed): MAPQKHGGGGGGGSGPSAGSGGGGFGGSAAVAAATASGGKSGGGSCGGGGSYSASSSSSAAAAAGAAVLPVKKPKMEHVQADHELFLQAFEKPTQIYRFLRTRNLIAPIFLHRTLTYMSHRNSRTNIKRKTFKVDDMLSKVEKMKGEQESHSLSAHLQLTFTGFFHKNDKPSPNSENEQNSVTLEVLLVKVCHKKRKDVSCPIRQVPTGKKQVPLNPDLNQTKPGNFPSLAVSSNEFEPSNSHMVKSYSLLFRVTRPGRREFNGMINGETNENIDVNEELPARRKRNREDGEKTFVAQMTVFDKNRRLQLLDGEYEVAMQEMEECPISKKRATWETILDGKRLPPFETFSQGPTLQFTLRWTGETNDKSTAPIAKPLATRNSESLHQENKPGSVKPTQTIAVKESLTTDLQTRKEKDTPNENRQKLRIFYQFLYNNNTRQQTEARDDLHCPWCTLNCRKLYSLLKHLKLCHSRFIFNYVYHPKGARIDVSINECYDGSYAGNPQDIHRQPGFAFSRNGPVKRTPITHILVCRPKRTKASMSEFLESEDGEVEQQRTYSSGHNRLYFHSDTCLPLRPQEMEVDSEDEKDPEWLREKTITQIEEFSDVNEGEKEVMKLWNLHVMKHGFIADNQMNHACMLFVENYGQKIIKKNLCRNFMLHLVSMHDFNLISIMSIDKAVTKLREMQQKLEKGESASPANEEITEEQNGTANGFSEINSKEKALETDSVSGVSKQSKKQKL
Experimental: (§3) In order to confirm the EZH1 and/or EZH2 activity inhibitory effect of the 1,3-benzodioxole derivative compounds represented by chemical formula I of the present invention, the activity was measured using an AlphaLISA test method. The test substance dissolved in dimethylsulfoxide (DMSO) was diluted in a test solution (20 mM Tris pH 8.0, 0.1% BSA, 0.01% Triton X-100, 0.5 mM DTT) according to a final treatment concentration (5 nM or 10 nM) and mixed with EZH1 and EZH2, respectively, and then histone H3 peptide and S-adenosylmethionine (SAM) were added to initiate an enzyme reaction. An acceptor bead was added thereto after reaction for two hours and subjected to an additional reaction for one hour, after which a donor bead was added thereto. After an additional reaction for 30 minutes, the reaction was completed. An activity was measured using the Magellan program on a Spark10M instrument. DMSO was used as a control group, an inhibition rate of enzyme activity was calculated using a following equation, and the results thereof are shown in Table 1 below. [formula]

EZH2 = EZH2 (Homo sapiens, UniProt Q15910); experiment: AlphaLISA enzyme activity inhibition, EZH2; assay type: biochemical; conditions: for inhibition at 0.005 µM: 5nM test substance; for inhibition at 0.01 µM: 10nM test substance
EZH2, sequence (Q15910 whole entry, species assumed): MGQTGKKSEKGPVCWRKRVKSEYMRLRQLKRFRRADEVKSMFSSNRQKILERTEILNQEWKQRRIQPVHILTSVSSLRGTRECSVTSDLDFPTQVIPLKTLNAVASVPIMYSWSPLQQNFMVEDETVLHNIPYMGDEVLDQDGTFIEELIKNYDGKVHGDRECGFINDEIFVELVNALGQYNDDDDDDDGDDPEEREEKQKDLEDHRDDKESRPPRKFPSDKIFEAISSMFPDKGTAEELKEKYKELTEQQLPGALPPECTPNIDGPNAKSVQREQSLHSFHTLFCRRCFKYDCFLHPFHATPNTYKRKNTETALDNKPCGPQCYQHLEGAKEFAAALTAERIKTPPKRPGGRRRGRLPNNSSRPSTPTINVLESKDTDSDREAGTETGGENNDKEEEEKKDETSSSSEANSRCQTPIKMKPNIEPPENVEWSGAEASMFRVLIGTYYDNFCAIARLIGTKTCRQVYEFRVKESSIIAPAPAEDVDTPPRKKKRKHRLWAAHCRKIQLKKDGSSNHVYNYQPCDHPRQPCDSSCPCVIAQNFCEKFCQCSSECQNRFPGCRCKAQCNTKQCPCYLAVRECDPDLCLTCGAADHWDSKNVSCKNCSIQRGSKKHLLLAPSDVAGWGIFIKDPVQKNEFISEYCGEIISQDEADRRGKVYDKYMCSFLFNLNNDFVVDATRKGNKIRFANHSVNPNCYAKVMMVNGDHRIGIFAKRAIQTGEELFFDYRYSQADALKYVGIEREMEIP
EZH2, sequence (O75530 whole entry partner, species assumed): as the sequence (O75530 whole entry partner, species assumed) above
EZH2, sequence (Q15022 whole entry partner, species assumed): as the sequence (Q15022 whole entry partner, species assumed) above
Experimental: as §3

CSc1cc(C)[nH]c(=O)c1CNC(=O)c1cc(-c2ccc(N3CC(C)CC(C)C3)nc2)c2c(c1C)OC(C)([C@H]1CC[C@H](N(C)C)CC1)O2 (relative stereo) [Compound 16, 2-(trans-4-(dimethylamino)cyclohexyl)-7-(6-(3,5-dimethylpiperidin-1-yl)pyridin-3-yl)-2,4-dimethyl-N-((6-methyl-4-(methylthio)-2-oxo-1,2-dihydropyridin-3-yl)methyl)benzo[d][1,3]dioxole-5-carboxamide]
inhibition at 1 µM (MKN-45 cells): 30 to 70%
inhibition at 1 µM (G401 cells): 30 to 70%
inhibition at 1 µM (NCI-H1299 cells): ≤ 30%
inhibition at 1 µM (MIA-PaCa-2 cells): ≤ 30%
inhibition at 1 µM (Lovo cells): ≥ 70%
inhibition at 1 µM (SW-13 cells): ≥ 70%
inhibition at 0.005 µM (EZH1): 69%
inhibition at 0.005 µM (EZH2): 92.4%

CSc1cc(C)[nH]c(=O)c1CNC(=O)c1cc(-c2ccc(N3C[C@@H](C)O[C@@H](C)C3)nc2)c2c(c1C)OC(C)([C@H]1CC[C@H](N(C)CCCC(F)(F)F)CC1)O2 (stereo partly drawn) [Compound 113]
inhibition at 1 µM (MKN-45 cells): ≤ 30%
inhibition at 1 µM (G401 cells): ≥ 70%
inhibition at 1 µM (NCI-H1299 cells): ≤ 30%
inhibition at 1 µM (MIA-PaCa-2 cells): ≤ 30%
inhibition at 1 µM (Lovo cells): ≥ 70%
inhibition at 1 µM (SW-13 cells): 30 to 70%
inhibition at 0.005 µM (EZH1): 32.5%
inhibition at 0.01 µM (EZH1): 68.8%
inhibition at 0.005 µM (EZH2): 96.7%
inhibition at 0.01 µM (EZH2): 100%

CCN1CCC(C2(C)Oc3c(-c4ccc(N(C)CC)nc4)cc(C(=O)NCc4c(SC)cc(C)[nH]c4=O)c(C)c3O2)CC1 (single isomer, unassigned) [Compound 89, 7-(6-(ethyl(methyl)amino)pyridin-3-yl)-2-(1-ethylpiperidin-4-yl)-2,4-dimethyl-N-((6-methyl-4-(methylthio)-2-oxo-1,2-dihydropyridin-3-yl)methyl)benzo[d][1,3]dioxole-5-carboxamide]
inhibition at 1 µM (MKN-45 cells): ≤ 30%
inhibition at 1 µM (G401 cells): ≥ 70%
inhibition at 1 µM (NCI-H1299 cells): ≤ 30%
inhibition at 1 µM (MIA-PaCa-2 cells): ≤ 30%
inhibition at 1 µM (Lovo cells): ≥ 70%
inhibition at 1 µM (SW-13 cells): 30 to 70%
inhibition at 0.005 µM (EZH1): 40%
inhibition at 0.01 µM (EZH1): 71%
inhibition at 0.005 µM (EZH2): 99.5%
inhibition at 0.01 µM (EZH2): 100%

COc1ccc(F)cc1-c1cc(C(=O)NCc2c(SC)cc(C)[nH]c2=O)c(C)c2c1OC(C)([C@H]1CC[C@H](N(C)C)CC1)O2 (relative stereo) [Compound 12, 2-(trans-4-(dimethylamino)cyclohexyl)-7-(5-fluoro-2-methoxyphenyl)-2,4-dimethyl-N-((6-methyl-4-(methylthio)-2-oxo-1,2-dihydropyridin-3-yl)methyl)benzo[d][1,3]dioxole-5-carboxamide]
inhibition at 1 µM (MKN-45 cells): ≤ 30%
inhibition at 1 µM (G401 cells): 30 to 70%
inhibition at 1 µM (NCI-H1299 cells): ≤ 30%
inhibition at 1 µM (MIA-PaCa-2 cells): ≤ 30%
inhibition at 1 µM (Lovo cells): 30 to 70%
inhibition at 1 µM (SW-13 cells): 30 to 70%
inhibition at 0.005 µM (EZH1): 80.5%
inhibition at 0.005 µM (EZH2): 99.2%

CCN(C)c1ncc(-c2cc(C(=O)NCc3c(SC)cc(C)[nH]c3=O)c(C)c3c2OC(C)(C2CCN(CC(F)(F)F)CC2)O3)cn1 (stereo not drawn) [Compound 78]
inhibition at 1 µM (MKN-45 cells): 30 to 70%
inhibition at 1 µM (G401 cells): ≥ 70%
inhibition at 1 µM (NCI-H1299 cells): ≤ 30%
inhibition at 1 µM (MIA-PaCa-2 cells): ≤ 30%
inhibition at 1 µM (Lovo cells): ≥ 70%
inhibition at 1 µM (SW-13 cells): ≤ 30%
inhibition at 0.005 µM (EZH1): 53.1%
inhibition at 0.01 µM (EZH1): 79.3%
inhibition at 0.005 µM (EZH2): 86.1%
inhibition at 0.01 µM (EZH2): 98.1%

CSc1cc(C)[nH]c(=O)c1CNC(=O)c1cc(-c2ccc(Cl)s2)c2c(c1C)OC(C)([C@H]1CC[C@H](N(C)C)CC1)O2 (relative stereo) [Compound 19, 7-(5-chlorothiophen-2-yl)-2-(trans-4-(dimethylamino)cyclohexyl)-2,4-dimethyl-N-((6-methyl-4-(methylthio)-2-oxo-1,2-dihydropyridin-3-yl)methyl)benzo[d][1,3]dioxole-5-carboxamide]
inhibition at 1 µM (MKN-45 cells): 30 to 70%
inhibition at 1 µM (G401 cells): 30 to 70%
inhibition at 1 µM (NCI-H1299 cells): ≤ 30%
inhibition at 1 µM (MIA-PaCa-2 cells): ≤ 30%
inhibition at 1 µM (Lovo cells): ≥ 70%
inhibition at 1 µM (SW-13 cells): 30 to 70%
inhibition at 0.005 µM (EZH1): 78.7%
inhibition at 0.005 µM (EZH2): 98.7%

CCN1CCC(C2(C)Oc3c(-c4ccc(N5C[C@@H](C)O[C@@H](C)C5)nc4)cc(C(=O)NCc4c(SC)cc(C)[nH]c4=O)c(C)c3O2)CC1 (single isomer, unassigned) [Compound 49]
inhibition at 1 µM (MKN-45 cells): ≤ 30%
inhibition at 1 µM (G401 cells): 30 to 70%
inhibition at 1 µM (NCI-H1299 cells): 30 to 70%
inhibition at 1 µM (MIA-PaCa-2 cells): ≤ 30%
% inhibition rate LoVo (Lovo cells): +++ (+++: ≥70%)
inhibition at 1 µM (SW-13 cells): 30 to 70%
inhibition at 0.005 µM (EZH1): 78.8%
inhibition at 0.01 µM (EZH1): 92.4%
inhibition at 0.005 µM (EZH2): 99.2%
inhibition at 0.01 µM (EZH2): 99.5%

CCN1CCN(c2ncc(-c3cc(C(=O)NCc4c(SC)cc(C)[nH]c4=O)c(C)c4c3OC(C)(C3CCN(CC(F)(F)F)CC3)O4)cn2)CC1 (single isomer, unassigned) [Compound 76, 7-(2-(4-ethylpiperazin-1-yl)pyrimidin-5-yl)-2,4-dimethyl-N-((6-methyl-4-(methylthio)-2-oxo-1,2-dihydropyridin-3-yl)methyl)-2-(1-(2,2,2-trifluoroethyl)piperidin-4-yl)benzo[d][1,3]dioxole-5-carboxamide]
inhibition at 1 µM (MKN-45 cells): 30 to 70%
% inhibition rate G401 (G401 cells): +++ (+++: ≥70%)
inhibition at 1 µM (NCI-H1299 cells): ≤ 30%
inhibition at 1 µM (MIA-PaCa-2 cells): ≤ 30%
% inhibition rate LoVo (Lovo cells): +++ (+++: ≥70%)
inhibition at 1 µM (SW-13 cells): 30 to 70%
inhibition at 0.005 µM (EZH1): 79%
inhibition at 0.01 µM (EZH1): 96.2%
inhibition at 0.005 µM (EZH2): 99.5%
inhibition at 0.01 µM (EZH2): 99.6%

CSc1cc(C)[nH]c(=O)c1CNC(=O)c1cc(-c2ccoc2)c2c(c1C)OC(C)([C@H]1CC[C@H](N(C)C)CC1)O2 (relative stereo) [Compound 18, 2-(trans-4-(dimethylamino)cyclohexyl)-7-(furan-3-yl)-2,4-dimethyl-N-((6-methyl-4-(methylthio)-2-oxo-1,2-dihydropyridin-3-yl)methyl)benzo[d][1,3]dioxole-5-carboxamide]
inhibition at 1 µM (MKN-45 cells): ≤ 30%
inhibition at 1 µM (G401 cells): 30 to 70%
inhibition at 1 µM (NCI-H1299 cells): ≤ 30%
inhibition at 1 µM (MIA-PaCa-2 cells): ≤ 30%
inhibition at 1 µM (Lovo cells): ≥ 70%
inhibition at 1 µM (SW-13 cells): 30 to 70%
inhibition at 0.005 µM (EZH1): 87.6%
inhibition at 0.005 µM (EZH2): 99.8%

CSc1cc(C)[nH]c(=O)c1CNC(=O)c1cc(-c2ccc(CN3CCOCC3)cc2)c2c(c1C)OC(C)([C@H]1CC[C@H](N(C)C)CC1)O2 (relative stereo) [Compound 6, 2-(trans-4-(dimethylamino)cyclohexyl)-2,4-dimethyl-N-((6-methyl-4-(methylthio)-2-oxo-1,2-dihydropyridin-3-yl)methyl)-7-(4-(morpholinomethyl)phenyl)benzo[d][1,3]dioxole-5-carboxamide]
inhibition at 1 µM (MKN-45 cells): ≤ 30%
inhibition at 1 µM (G401 cells): 30 to 70%
inhibition at 1 µM (NCI-H1299 cells): ≤ 30%
inhibition at 1 µM (MIA-PaCa-2 cells): ≤ 30%
inhibition at 1 µM (Lovo cells): 30 to 70%
inhibition at 1 µM (SW-13 cells): 30 to 70%
inhibition at 0.005 µM (EZH1): 86.7%
inhibition at 0.005 µM (EZH2): 98.2%

CCN(C)c1ncc(-c2cc(C(=O)NCc3c(SC)cc(C)[nH]c3=O)c(C)c3c2OC(C)(C2CCN(CC(F)F)CC2)O3)cn1 (single isomer, unassigned) [Compound 81, 2-(1-(2,2-difluoroethyl)piperidin-4-yl)-7-(2-(ethyl(methyl)amino)pyrimidin-5-yl)-2,4-dimethyl-N-((6-methyl-4-(methylthio)-2-oxo-1,2-dihydropyridin-3-yl)methyl)benzo[d][1,3]dioxole-5-carboxamide]
inhibition at 1 µM (MKN-45 cells): 30 to 70%
% inhibition rate G401 (G401 cells): +++ (+++: ≥70%)
inhibition at 1 µM (NCI-H1299 cells): ≤ 30%
inhibition at 1 µM (MIA-PaCa-2 cells): ≤ 30%
inhibition at 1 µM (Lovo cells): ≥ 70%
inhibition at 1 µM (SW-13 cells): 30 to 70%
inhibition at 0.005 µM (EZH1): 80.4%
inhibition at 0.01 µM (EZH1): 90.8%
inhibition at 0.005 µM (EZH2): 99.2%
inhibition at 0.01 µM (EZH2): 99.8%

CSc1cc(C)[nH]c(=O)c1CNC(=O)c1cc(-c2ccc(F)nc2F)c2c(c1C)OC(C)([C@H]1CC[C@H](N(C)C)CC1)O2 (relative stereo) [Compound 14, 7-(2,6-difluoropyridin-3-yl)-2-(trans-4-(dimethylamino)cyclohexyl)-2,4-dimethyl-N-((6-methyl-4-(methylthio)-2-oxo-1,2-dihydropyridin-3-yl)methyl)benzo[d][1,3]dioxole-5-carboxamide]
inhibition at 1 µM (MKN-45 cells): ≤ 30%
inhibition at 1 µM (G401 cells): 30 to 70%
inhibition at 1 µM (NCI-H1299 cells): ≤ 30%
inhibition at 1 µM (MIA-PaCa-2 cells): ≤ 30%
inhibition at 1 µM (Lovo cells): ≥ 70%
inhibition at 1 µM (SW-13 cells): 30 to 70%
inhibition at 0.005 µM (EZH1): 86.4%
inhibition at 0.005 µM (EZH2): 97.6%
